Laboratory results as given in ChEMBL document CHEMBL2331157, “Structure-activity relationships of 6-(aminomethylphenoxy)-benzoxaborole derivatives as anti-inflammatory agent” (Bioorg Med Chem Lett, 2013).

Tests used:
PBMC [1] = experiment: Antiinflammatory activity in human PBMCs assessed as inhibition of LPS-induced IL6 release at 100 uM incubated for 15 mins prior to LPS challenge measured after 24 hrs by HTRF assay relative to control; format: functional
PBMC [2] = experiment: Antiinflammatory activity in human PBMCs assessed as inhibition of LPS-induced IL1-beta release at 100 uM incubated for 15 mins prior to LPS challenge measured after 24 hrs by HTRF assay relative to control; format: functional
PBMC [3] = experiment: Antiinflammatory activity in human PBMCs assessed as inhibition of LPS-induced IL6 release incubated for 15 mins prior to LPS challenge measured after 24 hrs by HTRF assay; format: functional, cell-based
PBMC [4] = experiment: Antiinflammatory activity in human PBMCs assessed as inhibition of LPS-induced IL1-beta release incubated for 15 mins prior to LPS challenge measured after 24 hrs by HTRF assay; format: functional, cell-based
PBMC [5] = experiment: Antiinflammatory activity in human PBMCs assessed as inhibition of LPS-induced TNFalpha release incubated for 15 mins prior to LPS challenge measured after 24 hrs by HTRF assay; format: functional, cell-based
[6] = AUC in CD1 mouse at 10 mg/kg, po; format: ADME, organism-based; design: dose 10 mg/kg, route oral; settings: plasma
[7] = Oral bioavailability in CD1 mouse at 10 mg/kg; format: ADME, organism-based; settings: in vivo
[8] = Terminal half life in CD1 mouse at 10 mg/kg, po; format: ADME, organism-based; design: dose 10 mg/kg, route oral; settings: in vivo, read-out: beta t1/2 (converted)
[9] = Cmax in CD1 mouse at 10 mg/kg, po; format: ADME, organism-based; design: dose 10 mg/kg, route oral; settings: in vivo
[10] = Tmax in CD1 mouse at 10 mg/kg, po; format: ADME, organism-based; design: dose 10 mg/kg, route oral; settings: in vivo
[11] = AUC in CD1 mouse at 5 mg/kg, iv; format: ADME, organism-based; design: dose 5 mg/kg, route intravenous; settings: plasma
[12] = Terminal half life in CD1 mouse at 5 mg/kg, iv; format: ADME, organism-based; design: dose 5 mg/kg, route intravenous; settings: in vivo, read-out: beta t1/2 (converted)
[13] = Clearance in CD1 mouse at 5 mg/kg, iv; format: ADME, organism-based; design: dose 5 mg/kg, route intravenous; settings: in vivo
[14] = Volume of distribution at steady state in CD1 mouse at 5 mg/kg, iv; format: ADME, organism-based; design: dose 5 mg/kg, route intravenous; settings: in vivo, read-out: Vdss
PBMC [15] = experiment: Antiinflammatory activity in human PBMCs assessed as inhibition of LPS-induced TNFalpha release at 100 uM incubated for 15 mins prior to LPS challenge measured after 24 hrs by HTRF assay relative to control; format: functional
PBMC [16] = experiment: Antiinflammatory activity in human PBMCs assessed as inhibition of LPS-induced IL6 release at 10 uM incubated for 15 mins prior to LPS challenge measured after 24 hrs by HTRF assay relative to control; format: functional

Row | AUC [6] [ng·h/mL] | bioavailability [7] [%] | half-life [8] [min] | Cmax [9] [ng/mL] | Tmax [10] [min] | AUC [11] [ng·h/mL] | half-life [12] [min] | clearance [13] [mL/min/kg] | Vd [14] [L/kg] | SMILES | inhibition at 100 µM (PBMC [1]) [%] | inhibition at 100 µM (PBMC [2]) [%] | IC50 (PBMC [3]) [µM] | IC50 (PBMC [4]) [µM] | IC50 (PBMC [5]) [nM] | inhibition at 100 µM (PBMC [15]) [%] | inhibition at 10 µM (PBMC [16]) [%]
1 | – | – | – | – | – | – | – | – | – | Nc1cccc(Oc2ccc3c(c2)B(O)OC3)c1 | < 40 | < 40 | > 10 | > 10 | > 10000 | – | –
2 | 533 | 15 | 146 | 142 | 15 | 1740 | 39 | 38 | 2.14 | Cl.NCc1ccc(Oc2ccc3c(c2)B(O)OC3)c(F)c1 | 80 | 80 | 0.033 | 0.043 | 41 | 80 | –
3 | 2660 | 67 | 169 | 1450 | 15 | 2260 | 83.4 | 36.8 | 2.87 | Cl.NCc1ccc(Oc2ccc3c(c2)B(O)OC3)c(Cl)c1 | – | – | – | – | – | – | –
4 | – | – | – | – | – | – | – | – | – | OB1OCc2ccc(Oc3cccc(CN4CCOCC4)c3)cc21 | < 40 | 40 | > 10 | 4.4 | 5900 | 80 | –
5 | – | – | – | – | – | – | – | – | – | CN1CCN(Cc2cccc(Oc3ccc4c(c3)B(O)OC4)c2)CC1 | < 40 | 40 | > 10 | 7.1 | > 10000 | < 40 | –
6 | – | – | – | – | – | – | – | – | – | C[C@H]1C[C@H]2[C@@H]3CCC4=CC(=O)C=C[C@]4(C)[C@@]3(F)[C@@H](O)C[C@]2(C)[C@@]1(O)C(=O)CCl [CLOBETASOL] | 80 | 80 | 4.2 | 4.4 | 7 | 80 | –
7 | – | – | – | – | – | – | – | – | – | C[C@@H]1C[C@H]2[C@@H]3CCC4=CC(=O)C=C[C@]4(C)[C@@]3(F)[C@@H](O)C[C@]2(C)[C@@]1(O)C(=O)CO [DEXAMETHASONE] | – | 80 | – | 0.0095 | 17 | 80 | 43
8 | – | – | – | – | – | – | – | – | – | C[S+]([O-])c1ccc(-c2nc(-c3ccc(F)cc3)c(-c3ccncc3)[nH]2)cc1 (stereo not drawn) [SB-203580] | < 40 | 80 | > 10 | 0.34 | 1000 | 80 | –
